Values quoted from earlier work, collected in patent US20050095288A1, “Decongestant and expectorant tablets” (Andrx Labs, LLC, priority 2003, published 2005).

Conditions: background statement, no test described

- typical plasma half-life: approximately one
Structure (SMILES): COc1ccccc1OCC(O)CO (stereo not shown) [Guaifenesin, 3-(2-methoxyphenoxy)-1,2-propane-diol]
